Measured values as given in ChEMBL document CHEMBL1201862, “PubChem BioAssay data set” (2004).
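Compound exposure: 48 hours, 5 concentrations, 96-well plates. Here, GI50 denotes the concentration required for 50% inhibition of growth.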 The source made the active and inactive calls. Cut-off read from the data, not from the text of the source: active = GI50 up to about 1.1 µM and inactive = higher.

How the values were obtained:
Test in all cases: inhibition of tumour cell growth, NCI panel, 48 h
HOP-62 = test system: HOP-62
OVCAR-4 = test system: OVCAR-4
SK-MEL-28 = test system: SK-MEL-28
SK-MEL-5 = test system: SK-MEL-5
HOP-92 = test system: HOP-92
RPMI-8226 = test system: RPMI-8226
RXF 393 = test system: RXF 393
PC-3 = test system: PC-3
ACHN = test system: ACHN
IGROV-1 = test system: IGROV-1
MCF7 = test system: MCF7
786-0 = test system: 786-0
CAKI-1 = test system: CAKI-1
HL-60 = test system: HL-60
NCI-H23 = test system: NCI-H23
MDA-MB-435 = test system: MDA-MB-435
UACC-257 = test system: UACC-257
OVCAR-3 = test system: OVCAR-3
SF-268 = test system: SF-268

Measured: GI50

Cc1ccccc1N1C(N)=C(C#N)C(C#N)(C#N)C1c1ccccc1 (stereo not drawn)
inactive: HOP-62 19.4 µM | OVCAR-4 19 µM | SK-MEL-28 17.6 µM | SK-MEL-5 15.8 µM | HOP-92 13.8 µM | RPMI-8226 19.2 µM | RXF 393 15.3 µM | PC-3 24.6 µM | ACHN 16.1 µM | IGROV-1 17.9 µM | MCF7 23.6 µM | 786-0 17.3 µM | CAKI-1 25.9 µM | HL-60 18.5 µM | NCI-H23 19.4 µM | MDA-MB-435 17.7 µM | UACC-257 17 µM | OVCAR-3 17.2 µM | SF-268 20.9 µM

COc1cc(C(N)=O)cc(NC(=O)/C=C/c2ccccc2)c1OC
inactive: HOP-62 > 100 µM | OVCAR-4 > 100 µM | SK-MEL-28 > 100 µM | SK-MEL-5 64.7 µM | HOP-92 35.7 µM | RPMI-8226 > 100 µM | RXF 393 > 100 µM | PC-3 > 100 µM | ACHN > 100 µM | IGROV-1 > 100 µM | MCF7 > 100 µM | 786-0 > 100 µM | CAKI-1 > 100 µM | HL-60 > 100 µM | NCI-H23 > 100 µM | MDA-MB-435 > 100 µM | UACC-257 > 100 µM | OVCAR-3 97.5 µM | SF-268 64.3 µM

N=C1/C(=C/c2ccccc2)C(=O)N=C2SC=NN12
inactive: HOP-62 > 100 µM | OVCAR-4 > 100 µM | SK-MEL-28 > 100 µM | SK-MEL-5 > 100 µM | HOP-92 > 100 µM | RPMI-8226 > 100 µM | RXF 393 > 100 µM | PC-3 > 100 µM | ACHN > 100 µM | IGROV-1 > 100 µM | MCF7 > 100 µM | 786-0 > 100 µM | CAKI-1 > 100 µM | HL-60 > 100 µM | NCI-H23 > 100 µM | MDA-MB-435 > 100 µM | UACC-257 > 100 µM | OVCAR-3 > 100 µM | SF-268 > 100 µM

CC(=O)OCC(=O)O[C@@H]1[C@H]2[C@@H](OC(=O)c3ccccc3)[C@@H](C)C[C@]2(O)[C@H](OC(C)=O)[C@@]2(C)C[C@]1(OC(C)=O)C[C@H]1C(=O)C(C)(C)[C@@H](OC(C)=O)[C@@H]12
inactive: HOP-62 5.78 µM | OVCAR-4 > 20.9 µM | SK-MEL-28 > 25 µM | SK-MEL-5 9.46 µM | HOP-92 > 16.3 µM | RPMI-8226 17.9 µM | RXF 393 > 25 µM | PC-3 22.4 µM | ACHN > 25 µM | IGROV-1 > 25 µM | MCF7 > 25 µM | 786-0 > 20 µM | CAKI-1 17.1 µM | HL-60 2.77 µM | NCI-H23 > 25 µM | MDA-MB-435 10.8 µM | UACC-257 > 25 µM | OVCAR-3 > 25 µM | SF-268 > 25 µM

Cc1c(C2CCSc3ccccc3N2)sc2ccccc12 (stereo not drawn)
inactive: HOP-62 > 100 µM | OVCAR-4 62.7 µM | SK-MEL-28 > 100 µM | SK-MEL-5 > 100 µM | HOP-92 > 100 µM | RPMI-8226 > 100 µM | RXF 393 86.5 µM | PC-3 > 100 µM | ACHN > 100 µM | IGROV-1 > 100 µM | MCF7 62.2 µM | 786-0 > 100 µM | CAKI-1 52.5 µM | HL-60 55.5 µM | NCI-H23 > 100 µM | MDA-MB-435 35.2 µM | UACC-257 99.8 µM | OVCAR-3 > 100 µM | SF-268 > 100 µM

CC(=O)NC1=C(C)C(=O)c2c(nc3n2CCC3OC(=O)c2ccccc2)C1=N (stereo not drawn)
active: OVCAR-4 0.518 µM | MCF7 0.755 µM | MDA-MB-435 0.166 µM | OVCAR-3 0.552 µM
inactive: HOP-62 3.09 µM | SK-MEL-28 1.8 µM | SK-MEL-5 1.42 µM | HOP-92 2.15 µM | RPMI-8226 1.31 µM | RXF 393 1.29 µM | PC-3 1.32 µM | ACHN 1.71 µM | IGROV-1 1.74 µM | 786-0 1.93 µM | CAKI-1 1.84 µM | HL-60 1.21 µM | NCI-H23 1.46 µM | UACC-257 1.24 µM | SF-268 2.18 µM

O=C(/C=C/c1ccc(O)cc1)NCCc1ccc(O)cc1 [N-P-COUMAROYL TYRAMINE]
inactive: HOP-62 > 12.5 µM | OVCAR-4 8.63 µM | SK-MEL-28 > 12.5 µM | SK-MEL-5 > 12.5 µM | HOP-92 5.14 µM | RPMI-8226 6.95 µM | RXF 393 > 12.5 µM | PC-3 8.57 µM | ACHN 3.49 µM | IGROV-1 8.3 µM | MCF7 > 12.5 µM | 786-0 > 12.5 µM | CAKI-1 10.2 µM | HL-60 3.58 µM | NCI-H23 7.16 µM | MDA-MB-435 > 12.5 µM | UACC-257 > 12.5 µM | OVCAR-3 8.93 µM | SF-268 9.57 µM
